In patent US20200338094A1, “Use of a Heterocyclic Bcl-xL Inhibitor and Related Analogs for Removing Senescent Cells in the Treatment of Eye Diseases and Other Age-Related Conditions” (Unity Biotechnology, Inc., priority 2015, published 2020):

How the values were obtained:
[1] = target: T1, Bcl-xL (Homo sapiens, UniProt Q07817); assay: Bcl inhibition homogeneous (AlphaScreen) binding assay, Bcl-xL; conditions: read-out: Binding Affinities (Ki ± SD) Bcl-xL
T1 construct: purchased Sigma-Aldrich Co., St. Louis, Mo
Text: (§1) This assay uses a homogenous assay technology based on oxygen channeling that is marketed by PerkinElmer Inc., Waltham, Mass.: see Eglen et al., Current Chemical Genomics, 2008, 1, 2-10. The test compound is combined with the target Bcl protein and a peptide representing the corresponding cognate ligand, labeled with biotin. The mixture is then combined with streptavidin bearing luminescent donor beads and luminescent acceptor beads, which proportionally reduces luminescence if the compound has inhibited the peptide from binding to the Bcl protein.
(§2) Bcl-2, Bcl-xL and Bcl-W are available from Sigma-Aldrich Co., St. Louis, Mo. Biotinylated BIM peptide (ligand for Bcl-2) and BAD peptide (ligand for Bcl-xL) are described in pre-grant publication US 2016/0038503 A1. AlphaScreen® Streptavidin donor beads and Anti-6×His AlphaLISA® acceptor beads are available from PerkinElmer.
(§3) To conduct the assay, a 1:4 dilution series of the compound is prepared in DMSO, and then diluted in assay buffer. In a 96-well PCR plate, the following are combined: 10 μL peptide, 10 μL test compound, and 10 μL BCL protein. The assay plate is incubated in the dark at room temperature for 24 h. The next day, donor beads and acceptor beads are combined, and […] is added to each well. After incubating in the dark for 30 minute, luminescence is measured using a plate reader, and the affinity or degree of inhibition by each test compound is determined.
(§4) The chosen compounds were further assayed to quantitatively determine the actual affinity for Bcl-xL, Bcl-2, and Bcl-w with a view to identifying candidate senolytic agents for use in treating age related conditions. FIGS. 2A, 2B, and 2C show the results of the binding assay, with those compounds towards the left of each graph having the highest affinity.

[2] = target: T2, Bcl-2 (Homo sapiens, UniProt P10415); assay: Bcl inhibition homogeneous (AlphaScreen) binding assay, Bcl-2; conditions: read-out: Binding Affinities (Ki ± SD) Bcl-2
T2 construct: purchased Sigma-Aldrich Co., St. Louis, Mo
Text: as §1, §2, §3, §4

[3] = test system: senescent fibroblasts (SnCs), IMR90 cells; assay: Senolytic activity: killing senescent (irradiated) IMR90 fibroblasts, CellTiter-Glo; assay type: cell-based, human; conditions: for EC50: killing senescent (irradiated) fibroblasts in culture, read-out: Best SnCs EC50; for SI (specificity for senescent cells): senescent vs non-senescent cells of the same tissue type; for senolytic potency (EC50), in words: killing senescent cells
Text: Human fibroblast IMR90 cells can be obtained from the American Type Culture Collection (ATCC®) with the designation CCL-186. The cells are maintained at <75% confluency in DMEM containing FBS and Pen/Strep in an atmosphere of 3% O2, 10% CO2, and 95% humidity. The cells are divided into three groups: irradiated cells (cultured for 14 days after irradiation prior to use), proliferating normal cells (cultured at low density for one day prior to use), and quiescent cells (cultured at high density for four day prior to use).
On day 0, the irradiated cells are prepared as follows. IMR90 cells are washed, placed in T175 flasks at a density of 50,000 cells per mL, and irradiated at 10-15 Gy. Following irradiation, the cells are plated at […] in 96-well plates. On days 1, 3, 6, 10, and 13, the medium in each well is aspirated and replaced with fresh medium.
On day 10, the quiescent healthy cells are prepared as follows. IMR90 cells are washed, covered with 3 mL of TrypLE trypsin-containing reagent (Thermofisher Scientific, Waltham, Mass.) and cultured for 5 min until the cells have rounded up and begin to detach from the plate. Cells are dispersed, counted, and prepared in medium at a concentration of 50,000 cells per mL. 100 µL of the cells is plated in each well of a 96-well plate. Medium is changed on day 13.
On day 13, the proliferating healthy cell population is prepared as follows. Healthy IMR90 cells are washed, covered with 3 mL of TrypLE and cultured for 5 minutes until the cells have rounded up and begin to detach from the plate. Cells are dispersed, counted, and prepared in medium at a concentration of 25,000 cells per mL. 100 µL of the cells is plated in each well of a 96-well plate.
On day 14, test senolytic agents are combined with the cells as follows. A DMSO dilution series of each test compound is prepared at 200 times the final desired concentration in a 96-well PCR plate. Immediately before use, the DMSO stocks are diluted 1:200 into prewarmed complete medium. Medium is aspirated from the cells in each well, and 100 µL/well of the compound containing medium is added.
The test senolytic agents are cultured with the cells for 6 days, replacing the culture medium with fresh medium and the same compound concentration on day 17. Bcl-2 inhibitors such as those tested in the examples that follow are cultured with the cells for 3 days. The assay system uses the properties of a thermostable luciferase to enable reaction conditions that generate a stable luminescent signal while simultaneously inhibiting endogenous ATPase released during cell lysis. At the end of the culture period, 100 µL of CellTiter-Glo@ reagent (Promega Corp., Madison, Wis.) is added to each of the wells. The cell plates are placed for 30 seconds on an orbital shaker, and luminescence is measured.
Furthermore, even if the compound is potent, it would not be suitable for use as a therapeutic unless it preferentially kills senescent cells with a high degree of selectivity. Accordingly, compounds in the library showing high Bcl binding affinity were further screened for their ability to kill irradiated fibroblasts, in comparison with replicating fibroblasts or fibroblasts that were quiescent (due to confluence) but not senescent.

[4] = target: T3, Bcl-w (Homo sapiens, UniProt Q92843); assay: Bcl inhibition homogeneous (AlphaScreen) binding assay, Bcl-w; conditions: read-out: Binding Affinities (Ki ± SD) Bcl-w
T3 construct: purchased Sigma-Aldrich Co., St. Louis, Mo
T3 sequence (Q92843 1-193): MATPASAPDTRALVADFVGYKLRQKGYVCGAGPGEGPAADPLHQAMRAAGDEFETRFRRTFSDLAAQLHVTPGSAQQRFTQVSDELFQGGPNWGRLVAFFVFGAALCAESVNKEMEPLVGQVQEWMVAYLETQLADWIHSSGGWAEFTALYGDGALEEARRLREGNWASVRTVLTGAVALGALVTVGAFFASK
Text: as §1, §2, §3, §4

[5] = target: Bcl isoforms; assay: Binding affinity for the Bcl isoforms; conditions: Bcl-xL, Bcl-2, Bcl-w
Text: as §1, §2, §3, §4

T1 sequence (Q07817 whole entry, species assumed): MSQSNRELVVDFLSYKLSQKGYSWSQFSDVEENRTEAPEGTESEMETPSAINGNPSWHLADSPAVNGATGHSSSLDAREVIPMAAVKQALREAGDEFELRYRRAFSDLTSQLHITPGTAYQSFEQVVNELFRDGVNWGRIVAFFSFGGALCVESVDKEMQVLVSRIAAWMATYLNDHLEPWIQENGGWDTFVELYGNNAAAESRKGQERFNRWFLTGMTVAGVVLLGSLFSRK
T2 sequence (P10415 whole entry, species assumed): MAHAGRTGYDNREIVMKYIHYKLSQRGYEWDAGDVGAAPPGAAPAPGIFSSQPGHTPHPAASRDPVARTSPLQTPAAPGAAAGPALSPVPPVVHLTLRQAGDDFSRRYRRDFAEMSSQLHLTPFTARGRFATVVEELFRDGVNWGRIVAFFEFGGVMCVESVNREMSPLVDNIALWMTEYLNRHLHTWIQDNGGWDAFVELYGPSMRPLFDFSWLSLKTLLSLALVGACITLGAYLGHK

Ki [1] [nM] | Ki [2] [nM] | Ki [4] [nM] | binding affinities (Ki) for the Bcl isoforms, in words [5] | SMILES | EC50 [3] [nM] | SI (specificity for senescent cells) [3] | senolytic potency (EC50), in words [3]
0.0453 | 3.33 | 0.66 | – | CCn1c(C)c(C(=O)O)c(-c2cccc(N3CCN(c4ccc(NS(=O)(=O)c5ccc(N[C@H](CCN6CCC(O)CC6)CSc6ccccc6)c(S(=O)(=O)C(F)(F)F)c5)cc4)CC3)c2)c1-c1ccc(Cl)cc1 [BM-957] | 300 | 11.7 | –
0.0574 | 3.39 | 0.538 | – | Cc1c(C(=O)O)c(-c2cccc(N3CCN(c4ccc(NS(=O)(=O)c5ccc(N[C@H](CCN6CCC(O)CC6)CSc6ccccc6)c(S(=O)(=O)C(F)(F)F)c5)cc4)CC3)c2)c(-c2ccc(Cl)cc2)n1C(C)C [BM-962] | 200 | 18.5 | –
0.00573 | 0.179 | 0.161 | nanomole to picomole range | CCn1c(C)c(C(=O)NS(C)(=O)=O)c(-c2cccc(N3CCN(c4ccc(NS(=O)(=O)c5ccc(N[C@H](CCN(C)C)CSc6ccccc6)c([N+](=O)[O-])c5)cc4)CC3)c2)c1-c1ccc(Cl)cc1 [BM-1075] | 300 | 15.3 | –
– | – | – | – | CCn1c(C)c(S(C)(=O)=O)c(-c2cc(F)cc(N3CCN(c4ccc(NS(=O)(=O)c5ccc(N[C@H](CCN6CCC(O)CC6)CSc6ccccc6)c(S(=O)(=O)C(F)(F)F)c5)cc4)CC3)c2)c1-c1ccc(F)cc1 [BM-1192] | 50 | 60.0 | –
0.149 | 0.667 | 0.175 | nanomole to picomole range | Cc1c(S(C)(=O)=O)c(-c2cc(F)cc(N3CCN(c4ccc(NS(=O)(=O)c5ccc(N[C@H](CCN6CCC(O)CC6)CSc6ccccc6)c(S(=O)(=O)C(F)(F)F)c5)cc4)CC3)c2)c(-c2ccc(F)cc2)n1C(C)C [BM-1195] | 6 | 128.7 | potent in the nanomole range
0.295 | 0.448 | 0.292 | nanomole to picomole range | Cc1c(S(C)(=O)=O)c(-c2cc(F)cc(N3CCN(c4ccc(NS(=O)(=O)c5ccc(N[C@H](CCN6CCC(O)CC6)CSc6ccccc6)c(S(=O)(=O)C(F)(F)F)c5)cc4)CC3)c2)c(-c2ccc(Cl)cc2)n1C(C)C [BM-1197] | 5 | 366.7 | potent in the nanomole range
0.135 | 0.451 | 0.357 | nanomole to picomole range | Cc1c(S(C)(=O)=O)c(-c2cc(F)cc(N3CCN(c4ccc(NS(=O)(=O)c5ccc(N[C@H](CCN6CCC(C(=O)O)CC6)CSc6ccccc6)c(S(=O)(=O)C(F)(F)F)c5)cc4)CC3)c2)c(-c2ccc(Cl)cc2)n1C(C)C [BM-1244] | 300 | 66.7 | –
